{"source": "patent US20240122934A1", "about": "“COMPOSITIONS AND METHODS OF TREATMENT FOR INHIBITING CAPILLARY TUBE REGRESSION” (University of South Florida, priority 2019, published 2024)", "key": {"THP-1 macrophages": {"test_system": "THP-1 macrophages", "test": "TLR ligand activation of cells; conditioned medium tested on EC tube networks", "assay_type": "cell-based, human", "protocol": "(§1) (A,B) The TLR ligand Pam3CSK4 was added at 100 ng/ml to THP-1 macrophages that were differentiated in two separate ways (THP-1-VT vs. THP-1-T) or to ECs, fibroblasts (Fib), or pericytes (Peri). Conditioned medium was collected after 4 hr and was added at a 1:5 dilution to established EC tube networks vs. control Pam3CSK4 or control RPMI1640 media. Two independent conditioned media batches were obtained for both the THP-1-VT (i.e. VT1, VT2) and THP-1-T (i.e. T1, T2) macrophage cells. IL-la and IL-1β were added separately at 1 ng/ml. After 24 hr, cultures were fixed, stained, photographed (A) and quantitated for EC tube area (B). Bar equals 200 μm. […] The values (±SD) were obtained from analyzed fields (n=15) where total lumen and tube area was measured. Asterisks indicate significance at p<0.05 compared to control. (C) LPS was added at the indicated concentrations (ng/ml) in the presence or absence of recombinant LPS binding protein (LBP) at 1 μg/ml to EC tube networks. EC lumen areas were measured after 24 hr following these additions. (D) THP-T macrophages were treated with control or 100 ng/ml of Pam3CSK4 (Pam) or LPS. After 4 hr, total RNA was obtained, and RT-PCR analysis was performed evaluating the mRNA expression of indicated genes. […] From the real-time videos, EC lumen areas were measured over time (n=6). […]"}, "THP-T macrophages": {"test_system": "THP-T macrophages", "test": "RT-PCR of cytokine mRNA in TLR ligand-treated macrophages", "assay_type": "cell-based, human", "conditions": "100 ng/ml, 4 hr", "protocol": "as §1"}, "EC tube networks [1]": {"test_system": "EC tube networks", "test": "3D collagen EC tube regression assay", "assay_type": "cell-based, human", "conditions": "for EC tube regression (pro-regressive activity): factor added to established 48 hr EC tube networks, 24 hr", "protocol": "(A) EC cultures with tube networks were established for 48 hr followed by the addition of indicated cytokines or thrombin (Thr) for 24 hr. IL-1β and IL-la were added at 1 ng/ml, TNFα at 3.16 ng/ml and thrombin at 1 μg/ml. Bars equal 100 or 200 μm. (B,C,D) EC tube networks were treated with the indicated cytokines and varying concentrations in dose-response analyses and in the presence or absence of thrombin added at 1 μg/ml. After 24 hr, cultures were fixed, stained and quantitated for EC lumen area per field. These curves are from a representative experiment using triplicate wells for each condition. The values (±SD) are derived from analyzed fields (n=15) where total lumen and tube area was measured. Asterisks indicate significance at p<0.05 compared to control and squares indicate significance at p<0.05 compared to the cytokine treatments alone.\nECs (passages 3-6) and pericytes (passages 3-12) were cultured as previously described^49,50. THP-1 cells were cultured in RPMI-1640-20% FCS. THP-1-T macrophages were differentiated for 72 hr. with 50 ng/ml of phorbol ester in RPMI-20% FCS, and then treated for 48 hr. in RPMI-2% FCS prior to adding TLR ligands. THP-1-VT macrophages were induced to differentiate for 72 hr. with 10^-7 M vitamin D3 (Calcitriol) in RPMI-20% FCS, followed by 48 hr. with phorbol ester in RPMI-2% FCS prior to adding TLR ligands.\n(§2) ECs or ECs with pericytes were suspended in 3D collagen matrices and incubated at 37° C. in serum-free defined media as described^9,50,51. Recombinant factors or THP-1 conditioned media were added at the indicated doses to existing 48 or 72 hr. cultures with EC only or EC-pericyte tube networks, respectively. After 24 or 48 hr. for EC only or EC-pericyte tubes, respectively, cultures were fixed in 3% glutaraldehyde or 3% paraformaldehyde. EC tube areas were traced and quantitated as described. In some cases, neutralizing antibodies were added (10 μg/ml). For signaling experiments, lysates were prepared from control vs. regressing 3D cultures at different time points."}, "[2]": {"test_system": "EC-pericyte tube networks", "test": "EC-pericyte co-culture regression assay", "assay_type": "cell-based, human", "conditions": "added to 72 hr co-cultures", "protocol": "(A) EC-pericyte (GFP-labeled) co-cultures were established and allowed to form for 72 hr and at this time, the combination of IL-1β (10 ng/ml), TNFα (10 ng/ml) and thrombin (11 μg/ml) were added in combination compared to control and real-time movies were performed. Light and fluorescent image overlays over time are shown in representative fields. Arrowheads indicate clusters of pericytes that accumulate together during regression responses in response to these three factors in combination. After 48 hr, fixed cultures were stained for CD31 to detect ECs and fluorescence image overlays were performed. (B) The same set up was established as in A, except that each individual factor and combination of factors were added. After 48 hr, the cultures were fixed and stained for CD31. Confocal images were obtained, and fluorescence overlay images are shown.\n(A) EC-pericyte co-cultures were established for 72 hr, and then were left untreated or with IL-1β (10 ng/ml), TNFα (10 ng/ml), and thrombin (11 μg/ml) in combination. After 48 hr, cultures were fixed and stained with CD31, confocal microscopy and 3D reconstruction of the images allowed for an upright and side view. (B) EC-pericyte tube networks were treated with the indicated single and combined factors and after fixation, EC tube area was quantitated. […] The values (±SD) were obtained from analyzed fields (n=15) where total lumen and tube area was measured. Asterisks indicate increased significance at p<0.05 compared to control, the squares indicate decreased significance at p<0.05 relative to the single factor conditions and the triangle indicates significance at p<0.05 relative to the double factor conditions. (C) EC-pericyte tube networks were treated with indicated combinations of factors. After 48 hr, total GFP fluorescence per well was quantitated as a measure of pericyte number since they are GFP-labeled. […] Asterisks indicate significance at p<0.05 compared to control.\nas §2"}, "EC tube networks [3]": {"test_system": "EC tube networks", "test": "Western blots of lysates from regressing 3D EC cultures (regression signaling signature)", "assay_type": "cell-based, human", "conditions": "24-hr. time course, compared to control EC tubes", "protocol": "(A,B) ECs tube networks were treated with the indicated factors vs. control and at different time points, lysates were prepared from the 3D cultures. Western blots were performed using the different indicated antibodies. (C) Schematic illustrating findings that define a capillary regression signaling signature.\nTHP-T macrophages were treated with Pam3CSK4 (Pam) or LPS and conditioned medium was added at a 1:20 or 1:50 dilution, respectively, to EC tube networks. Control and IL10-treated cultures were compared with the conditioned medium treatments within the same experiment. At the indicated time points, lysates were obtained, and Western blots were performed with the indicated antibodies.\nas §2"}, "[4]": {"test_system": "Lymphatic EC tube networks", "test": "lymphatic EC tube network regression", "assay_type": "cell-based", "conditions": "cytokines 10 ng/ml, thrombin 1 μg/ml, 24 hr", "protocol": "Lymphatic EC tube networks were established for 48 hr and at that time, the indicated pro-inflammatory mediators were added. IL-10 and TNFα were added at 10 ng/ml, while thrombin was added at 1 μg/ml. (A) After 24 hr, cultures were fixed, stained with toluidine blue and photographed. (B) The cultures in (A) were quantitated for EC tube area. Asterisks indicate significance at p<0.01 compared to control."}, "EC sprouts and tubes": {"test_system": "EC sprouts and tubes", "test": "angiogenic sprouting assay (ECs invading from monolayer surface)", "assay_type": "cell-based, human", "conditions": "angiogenic sprouting system", "protocol": "(A) ECs were seeded onto a monolayer surface and then allowed to invade into the gels to form tubes over a 48 hr period. At this time, cultures were then treated with IL-1β or TNFα and in the absence or presence of FIST. Cultures were fixed after 24 hr, stained and photographed to visualize the monolayer surface and the underlying sprouts and tubes. (B) Cultures were established just like in A and then the Pak2 inhibitor, Frax486 (2.5 μM) or the microtubule depolymerizing agent, vinblastine (100 nM), were added to media in the presence or absence of FIST. Cultures were fixed after 24 hr, stained and photographed. Bar equals 200 μm.\nStudies to define the factors and signals that promote endothelial cell (EC) lumen and tube formation, EC sprouting and EC-pericyte tube co-assembly have been performed under serum-free defined conditions so that the functional role of individual molecules that regulate these processes can be assessed. Disclosed herein, the factors that control capillary regression are defined. Capillary regression is a process that has been largely neglected despite the likelihood that it may present a fundamental pathogenic feature of major human diseases where capillary disassembly and regression are known to occur (i.e. hypertension, diabetes, ischemic disease in many tissues, neurodegenerative diseases, and malignant cancer). […] EC tube networks were allowed to form for 48 hr. (vasculogenesis type of assay) and then added these agents in dose-response experiments, showing that they potently induce EC tube regression (at low ng levels) (FIG. 1). Real-time movies were performed to visualize these pro-regressive activities. This experimental approach has utilized assays that mimic vasculogenesis or angiogenic sprouting and these factors induce regression equally well in both assay systems. […] These studies have been performed primarily in 3D collagen matrices, but the same result is also observed in 3D fibrin matrices."}, "hyaloid vessels": {"test_system": "hyaloid vessels", "test": "hyaloid vascular regression in mice", "assay_type": "in vivo", "conditions": "intravitreal injection, vessel number quantitated at P8", "protocol": "(A) Intravitreal injection of blocking antibodies directed to both IL-10 and TNFα vs control IgG was performed at postnatal day (P) 6, and hyaloid vessel number was quantitated at P8. (B) Intravitreal injection of IL-10 was performed at P5 vs vehicle control, and hyaloid vessel number was quantitated at P8. (C and D) Hyaloid vessels at P2 and P8 were immunostained for phospho-MLC2 (p-MLC; red) and CD31-positive endothelial cells (ECs; green), and double-positive cells were imaged and quantitated over time. Scale bar=100 μm. E and F, Analysis of ICAM-1 expression at the mRNA (E) and protein level (F) during different stages of hyaloid vessel regression. CD indicates cluster of differentiation; DAPI, 4′6-diamidino-2-phenylindole; ICAM, intercellular adhesion molecule; and MLC, myosin light chain.\nIn some embodiments, physiologic capillary regression can be modeled in a mouse by examining the postnatal regression of the eye hyaloid vasculature. In some embodiments, this vascular regressive response can depend on the presence of adjacent macrophages which decorate this developmental vascular bed. […] In some embodiments, EC capillary regression during hyaloid regression can include increased expression of ICAM-1 (at the mRNA and protein level) and increased presence of phospho-MLC2 in regressing hyaloid ECs."}}, "note": "Entries after “also recorded” stand apart in the source; their conditions may differ.", "data": [{"molecule": "Pam3CSK4", "values": [{"measurement": "induction of pro-regressive activities in conditioned media of other cell types", "setting": "THP-1 macrophages; ECs, pericytes and fibroblasts", "value": "failed to induce pro-regressive activities in their conditioned media"}, {"measurement": "induction of pro-regressive activities in macrophage conditioned medium", "setting": "THP-1 macrophages; TLR ligand 100 ng/ml added to macrophages, medium collected after 4 hr", "value": "highly potent pro-regressive activities in the macrophage conditioned medium"}, {"measurement": "mRNA expression of inflammatory cytokines", "setting": "THP-T macrophages", "value": "marked upregulation of TNFα, IL-1β, IL-la, IL-6 and IL-10 (i.e. an anti-inflammatory cytokine) as well as tissue factor (i.e. F3)"}, {"measurement": "EC tube regression (pro-regressive activity)", "setting": "EC tube networks [1]", "value": "Neither Pam3CSK4 or LPS by themselves (with and without the presence of LPS-binding protein, LBP) had any ability to directly cause EC tube regression"}]}, {"molecule": "TNFα", "values": [{"measurement": "EC tube regression in EC-pericyte co-cultures", "setting": "[2]", "value": "marked tube regression in response to each factor individually and, also in combination"}, {"measurement": "pericyte numbers", "setting": "[2]", "value": "an increase in pericyte numbers"}, {"measurement": "ICAM-1 and VCAM-1 levels", "setting": "EC tube networks [3]", "value": "Strong upregulation of ICAM-1 and VCAM-1"}, {"measurement": "phospho-Pak2, phospho-cofilin, acetylated tubulin, procaspase3 levels", "setting": "EC tube networks [3]", "value": "decreased levels of phospho-Pak2, phospho-cofilin, acetylated tubulin and procaspase3"}, {"measurement": "phospho-p38, phospho-JNK, phospho-MLC2 levels", "setting": "EC tube networks [3]", "value": "increased levels of phospho-p38, phospho-JNK, and phospho-MLC2"}, {"measurement": "lymphatic tube network regression", "setting": "[4]", "value": "regress"}, {"measurement": "EC tube regression in screen of growth factors and cytokines", "setting": "EC tube networks [1]; 40 and 10 ng/ml, 48 hr EC tube networks", "value": "more potent pro-regressive factors than the other factors described herein"}, {"measurement": "EC tube regression (pro-regressive activity)", "setting": "EC tube networks [1]", "value": "directly cause capillary tube collapse and regression"}, {"measurement": "degeneration of sprouts and EC monolayer", "setting": "EC sprouts and tubes", "value": "induce degeneration of the invading sprouts, but also the EC monolayer surface where the sprouts originated"}]}, {"molecule": "thrombin", "values": [{"measurement": "EC tube regression in EC-pericyte co-cultures", "setting": "[2]", "value": "marked tube regression in response to each factor individually and, also in combination"}, {"measurement": "pericyte numbers", "setting": "[2]", "value": "an increase in pericyte numbers"}, {"measurement": "lymphatic tube network regression", "setting": "[4]", "value": "regress"}, {"measurement": "EC tube regression (pro-regressive activity)", "setting": "EC tube networks [1]", "value": "directly cause capillary tube collapse and regression; also recorded: less effective"}]}, {"molecule": "IL-10: anti-inflammatory cytokine (protein, UniProt P22301 19-178, looked up) Interleukin-10: SPGQGTQSENSCTHFPGNLPNMLRDLRDAFSRVKTFFQMKDQLDNLLLKESLLEDFKGYLGCQALSEMIQFYLEEVMPQAENQDPDIKAHVNSLGENLKTLRLRLRRCHRFLPCENKSKAVEQVKNAFNKLQEKGIYKAMSEFDIFINYIEAYMTMKIRN", "values": [{"measurement": "hyaloid vessel regression", "setting": "hyaloid vessels", "value": "inhibited hyaloid regression"}]}]}
